Activity calls are given as the source filed them. The rule behind the calls is not given here.
System: Vesicular stomatitis virus
Experiment: Antiviral activity against VSV pseudoparticles infected in human Huh7.5 cells infected with VSV pseudoparticles expressed in 293T cells with plasmid encoding vesicular stomatitis G protein, envelope and Vpr deficient HIV vector carrying luciferase reporter gene inserted into Nef position assessed as inhibition of pseudoparticle entry at 6.25 to 100 uM after 72 hrs by luciferase reporter gene assay
Format: functional, organism-based

Row | SMILES | inhibition
1 | C/C(=C\CC[C@]1(C)[C@@H](C(=O)O)C[C@H]1[C@](C)(O)C(=O)O)C(=O)O | inactive
2 | CC(=O)[C@@H]1C[C@H](C(=O)O)[C@@]1(C)CC/C=C(\C)C(=O)O | inactive
